Common to all, as to format: in vivo
Experiment [1] has as its system corn planthopper (Peregrinus maidis (Ashmead)). Briefly: whole plant or invertebrate. The note with it: Peregrinus maidis, 144 h, 6 days; for mortality at 50 ppm: sprayed at 50 ppm; for mortality at 250 ppm: sprayed at 250 ppm; for mortality at 10 ppm: sprayed at 10 ppm. In a few lines: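 Corn plants 3-4 days old were sprayed at 250, 50 and/or 10 ppm in 10% acetone with 300 ppm non-ionic surfactant, three replicates, contact and/or systemic exposure. After 1 h drying, ~15-20 nymphs (18-to-21-day-old) were added; mortality assessed visually after 6 days at 22-24° C, 50-70% RH.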

In experiment [2] the test system is green peach aphid (Myzus persicae (Sulzer)). Briefly: Test D: control of green peach aphid on radish plant, spray. The conditions noted are these: Myzus persicae, 144 h, 6 days; for mortality at 50 ppm: sprayed at 50 ppm; for mortality at 250 ppm: sprayed at 250 ppm. The gist of the method:
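Radish plants (12-15 days old) pre-infested with 30-40 aphids, sprayed with compound in 10% acetone/water with 300 ppm non-ionic surfactant at 250 and/or 50 ppm, three replicates. Held 6 days at 19-21 °C, 50-70% relative humidity, then mortality scored visually.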

Experiment [3] relates to sweetpotato whitefly (Bemisia tabaci (Gennadius)). Briefly: Test F: control of sweetpotato whitefly on cotton plant, spray. The note with it: 312 h, 13 days; for mortality at 250 ppm: sprayed at 250 ppm; for mortality at 50 ppm: sprayed at 50 ppm. As to the method: (§1) Test compounds were formulated using a solution containing 10% acetone, […] and 300 ppm Activator 909 non-ionic surfactant (Loveland Products, Loveland, Colorado, USA). The formulated compounds were applied in 1 mL of liquid through an atomizer nozzle positioned 1.27 cm (0.5 inches) above the top of each test unit. Test compounds were sprayed at the rates indicated, and each test was replicated three times.
For evaluating control of the sweetpotato whitefly (Bemisia tabaci (Gennadius)) through contact and/or systemic means, the test unit consisted of a small open container with a 12-14-day-old cotton plant inside. Prior to the spray application, both cotyledons were removed from the plant, leaving one true leaf for the assay. Adult whiteflies were allowed to lay eggs on the plant and then were removed from the test unit. Cotton plants infested with at least 15 eggs were submitted to the test for spraying.
Test compounds were formulated and sprayed at 250 and/or 50 ppm. After spraying, the test units were allowed to dry for 1 hour. The cylinders were then removed, and the units were taken to a growth chamber and held for 13 days at 28° C. and 50-70% relative humidity. Each test unit was then visually assessed for insect mortality.

In experiment [4] the test system is cotton melon aphid (Aphis gossypii (Glover)). Briefly: whole plant or invertebrate. The conditions noted are these: Aphis gossypii, 144 h, 6 days; for mortality at 50 ppm: sprayed at 50 ppm; for mortality at 250 ppm: sprayed at 250 ppm. The gist of the method: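 Compounds were formulated in a solution of 10% acetone, […] and 300 ppm Activator 909 non-ionic surfactant and sprayed as 1 mL through an atomizer nozzle 1.27 cm (0.5 inches) above each test unit, with three replicates. Units were pre-infested with 30-40 aphids on leaf pieces via the cut-leaf method, soil covered with sand, then kept 6 days at 19° C. and 70% relative humidity before visual mortality scoring.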

Experiment [5] has as its system diamondback moth (Plutella xylostella (L.)). Briefly: Test A: control of diamondback moth on mustard plant, spray. The note with it: sprayed at 250 ppm; assessed after 6 days. As to the method: as §1
For evaluating control of diamondback moth (Plutella xylostella (L.)) the test unit consisted of a small open container with a 12-14-day-old mustard plant inside. This was pre-infested with ˜50 neonate larvae that were dispensed into the test unit via corn cob grits using an inoculator. The larvae moved onto the test plant after being dispensed into the test unit.
Test compounds were formulated and sprayed at 250 ppm. After spraying of the formulated test compound, each test unit was allowed to dry for 1 hour and then a black, screened cap was placed on top. The test units were held for 6 days in a growth chamber at 25° C. and 70% relative humidity. Plant feeding damage was then visually assessed based on foliage consumed, and larvae were assessed for mortality.

For orientation: mortality means the percentage killed.

For `Fc1cncc(-n2nccn2)c1C(F)c1ccc(SC(F)(F)F)cc1` (stereo not drawn) [Compound 3], the mortality at 50 ppm in experiment [1], in experiment [2] and in experiment [4] was ≥ 80% throughout. Further, the mortality at 250 ppm in experiment [1] is ≥ 80%; in experiment [2], ≥ 80%; in experiment [3], ≥ 70%; in experiment [4], ≥ 80%. The “control efficacy (40% or less feeding damage and/or 100% mortality)” value in experiment [5] was “very good to excellent levels of control efficacy”.

On to `Fc1cncc(-c2ncco2)c1C(F)c1ccc(SC(F)(F)F)cc1` (stereo not drawn) [Compound 78], for which the mortality at 10 ppm in experiment [1] was ≥ 80%. For the same compound, the mortality at 50 ppm in experiment [1] was ≥ 80%; in experiment [2], ≥ 80%; in experiment [3], ≥ 70%; in experiment [4], ≥ 80%. The mortality at 250 ppm in experiment [1] is ≥ 80%; in experiment [2], ≥ 80%; in experiment [3], ≥ 70%; in experiment [4], ≥ 80%. The “control efficacy (40% or less feeding damage and/or 100% mortality)” value in experiment [5] is “very good to excellent levels of control efficacy”.

On to `FC(c1ccc(SC(F)(F)F)cc1)c1c(Cl)cncc1-n1nccn1` (stereo not drawn) [Compound 89], for which the mortality at 10 ppm in experiment [1] was ≥ 80%. Further, the mortality at 50 ppm in experiment [1] was ≥ 80%; in experiment [2], ≥ 80%; in experiment [3], ≥ 70%; in experiment [4] it was ≥ 80%. In addition, the mortality at 250 ppm is ≥ 80% in experiment [1], ≥ 80% in experiment [2], ≥ 70% in experiment [3] and ≥ 80% in experiment [4]. Further, the “control efficacy (40% or less feeding damage and/or 100% mortality)” value in experiment [5] was “very good to excellent levels of control efficacy”.

Consider `Fc1cncc(-n2nccn2)c1C(F)c1ccc(Br)cc1` (stereo not drawn) [Compound 92], for which, in experiment [1], the mortality at 10 ppm was ≥ 80%, the mortality at 50 ppm is ≥ 80% and the mortality at 250 ppm is ≥ 80%. Besides, in experiment [3], the mortality at 50 ppm is ≥ 70% and the mortality at 250 ppm was ≥ 70%. Also, in experiment [4], the mortality at 50 ppm was ≥ 80% and the mortality at 250 ppm was ≥ 80%. Moreover, the “control efficacy (40% or less feeding damage and/or 100% mortality)” value in experiment [5] is on record as “very good to excellent levels of control efficacy”.

Consider `COC(c1ccc(SC(F)F)cc1)c1c(F)cncc1-n1nccn1` (stereo not drawn) [Compound 118], for which the mortality at 50 ppm in experiment [2] was ≥ 80%; in experiment [3] it was ≥ 70%; in experiment [4], ≥ 80%. Further, the values for the mortality at 250 ppm in experiment [2], in experiment [3] and in experiment [4] were ≥ 80%, ≥ 70% and ≥ 80%, respectively. For the same compound, the “control efficacy (40% or less feeding damage and/or 100% mortality)” value in experiment [5] is “very good to excellent levels of control efficacy”.

As to `COC(c1ccc(SC(F)(F)F)cc1)c1c(I)cncc1-n1nccn1` (stereo not drawn) [Compound 120], in experiment [1], the mortality at 50 ppm was ≥ 80% and the mortality at 250 ppm is ≥ 80%. In addition, in experiment [3], the mortality at 50 ppm was ≥ 70% and the mortality at 250 ppm is ≥ 70%. Besides, the “control efficacy (40% or less feeding damage and/or 100% mortality)” value in experiment [5] is “very good to excellent levels of control efficacy”.

In the case of `COC(c1ccc(SC(F)(F)F)cc1)c1c(F)cncc1-n1nccn1` (stereo not drawn) [Compound 123], in experiment [1], the mortality at 10 ppm was ≥ 80%. Moreover, the mortality at 50 ppm in experiment [1] was ≥ 80%; in experiment [2] it was ≥ 80%; in experiment [3], ≥ 70%; in experiment [4], ≥ 80%. Further, the mortality at 250 ppm in experiment [1] is ≥ 80%; in experiment [2] it was ≥ 80%; in experiment [3], ≥ 70%; in experiment [4], ≥ 80%. The “control efficacy (40% or less feeding damage and/or 100% mortality)” value in experiment [5] was “very good to excellent levels of control efficacy”.

Turning to `COC(c1ccc(SC(F)(F)F)cc1)c1c(Br)cncc1-n1nccn1` (stereo not drawn) [Compound 133], in experiment [3], the mortality at 50 ppm was ≥ 70% and the mortality at 250 ppm was ≥ 70%. For the same compound, in experiment [4], the mortality at 50 ppm is ≥ 80% and the mortality at 250 ppm is ≥ 80%. Moreover, the “control efficacy (40% or less feeding damage and/or 100% mortality)” value in experiment [5] is “very good to excellent levels of control efficacy”.

For the origin of these results see US12568969B2, “Pyridine compounds for controlling invertebrate pests” (FMC Corporation, priority 2020, dated 2026).
